Test results published in publication PMC8063935, “Amphipathic Peptide Antibiotics with Potent Activity against Multidrug-Resistant Pathogens” (Pharmaceutics, 2021).
Where a SMILES comes first, the peptide text is derived from it.

Columns and labels:
[1] = tested on: E. coli B2; assay: Thermal, pH, salts, serum and protease stability (residual MIC); format: cell-based, Escherichia coli
Experimental: (§1) In order to evaluate the influence of ions and serum on the activity of AMPs, 10 mM Na^+, K^+, Mg^2+, 10% Dulbecco’s Modified Eagle Medium (DMEM) and fetal bovine serum (FBS) were added into Mueller-Hinton broth (MHB) culture medium for subsequent MIC tests.
(§2) Drugs were incubated at different temperatures (range from 40 to 121 °C) and pH (range from 2 to 12) for 1 h, then adjust back to original pH, following MIC test to evaluate their residual activity. To evaluate the protease stability, pepsin, trypsin, and papain were mixed with WW307 to achieve a final concentration of 1 mM, and then incubated at 37 °C for 1 h. After incubation, the remaining protease was precipitated using acetonitrile and removed by centrifugation at 3000× g, following for MIC test.

[2] = tested on: A. baumannii C222 (tet(X6)); assay: microbe, parasite or virus in culture; format: cell-based, Acinetobacter baumannii; conditions: A. baumannii C222 (tet(X6))
Experimental: (§3) The MICs of all drugs were determined by micro-broth dilution method according to CLSI 2018 guidelines. The bacterial suspension used in the experiment was appropriate 1.5 × 10^6 colony-forming units (CFUs) per mL and mixed with the drug solution in a sterilized 96-well microtiter plate (Corning, New York, USA), then incubated at 37 °C for 16–18 h. MIC value was defined as the minimum drug concentration without visible bacteria. Meanwhile, the density of the bacteria at 600 nm was measured, and the corresponding IC50 was calculated using log (inhibitor) vs. response variable slope (four parameters) in Graphpad Prism version 8.3.0 software (San Diego, CA, USA). To assess the role of ROS production in the antibacterial activity of WW307, increasing concentrations of N-acetylcysteine (NAC) from 0 to 5 mM were added in culture medium, followed by MICs test.

[3] = tested on: MRSA T144; assay: Thermal, pH, salts, serum and protease stability (residual MIC); format: cell-based, Staphylococcus aureus; conditions: protease precipitated with acetonitrile, then MIC test
[4] = tested on: E. coli B2 (mcr-1 + blaNDM-5); assay: microbe, parasite or virus in culture; format: cell-based, Escherichia coli; conditions: E. coli B2 (mcr-1 + blaNDM-5)
Experimental: as §3

[5] = tested on: E. coli 1F28 (tet(X4)); assay: microbe, parasite or virus in culture; format: cell-based, Escherichia coli
Experimental: as §3

[6] = tested on: E. coli G92 (mcr-1); assay: microbe, parasite or virus in culture; format: cell-based, Escherichia coli; conditions: E. coli G92 (mcr-1)
Experimental: as §3

[7] = tested on: E. coli B2; assay: Thermal, pH, salts, serum and protease stability (residual MIC); format: cell-based, Escherichia coli; conditions: protease precipitated with acetonitrile, then MIC test
[8] = tested on: P. cibarius HNCF44W (blaNDM-1 + tet(X6)); assay: MIC / IC50, micro-broth dilution; format: cell-based
Experimental: as §3

[9] = tested on: MRSA T144; assay: Thermal, pH, salts, serum and protease stability (residual MIC); format: cell-based, Staphylococcus aureus
Experimental: as §1, §2

[10] = tested on: Sheep RBCs; assay: Hemolysis analysis; format: cell-based; conditions: 8% sheep red blood cell suspension, 37 °C, 1 h, released hemoglobin at 576 nm; PBS negative, ddH2O positive control
Experimental: The hemolytic activity on all peptides was evaluated based on previous report. Briefly, fresh Sheep RBCs were washed twice with phosphate buffer (PBS), and then 8% red blood cell suspension was prepared. The increasing concentrations of AMPs and melittin were mixed with 8% red blood cell suspension, respectively, and incubated at 37 °C for 1 h. The sterilized PBS and double-distilled water (ddH2O) were used as blank and positive control, respectively. Afterwards, the supernatant was centrifuged to measure the absorption of released hemoglobin at 576 nm by an Infinite M200 Microplate reader (Tecan, Männedorf, Switzerland). The corresponding hemolysis rate was calculated.

[11] = tested on: E. coli CP131 (mcr-3); assay: MIC / IC50, micro-broth dilution; format: cell-based, Escherichia coli; conditions: E. coli CP131 (mcr-3)
Experimental: as §3

[12] = tested on: E. coli C3 (blaNDM-1); assay: MIC / IC50, micro-broth dilution; format: cell-based, Escherichia coli
Experimental: as §3

[13] = tested on: E. coli G6 (blaNDM-5); assay: MIC / IC50, micro-broth dilution; format: cell-based, Escherichia coli
Experimental: as §3

[14] = tested on: MRSA T144; assay: microbe, parasite or virus in culture; format: cell-based, Staphylococcus aureus
Experimental: as §3

[15] = tested on: S. aureus G16 (RIF^R); assay: microbe, parasite or virus in culture; format: cell-based, Staphylococcus aureus; conditions: S. aureus G16 (RIF^R)
Experimental: as §3

[16] = 10% fetal bovine serum (FBS) added into MHB
[17] = WW307 incubated at 40 °C for 1 h before MIC test
[18] = WW307 incubated at 60 °C for 1 h before MIC test
[19] = WW307 incubated at 80 °C for 1 h before MIC test
[20] = WW307 incubated at 100 °C for 1 h before MIC test
[21] = WW307 incubated at 121 °C for 1 h before MIC test
[22] = WW307 incubated at pH 2 for 1 h, adjusted back to original pH, then MIC test
[23] = WW307 incubated at pH 4 for 1 h, adjusted back to original pH, then MIC test
[24] = WW307 incubated at pH 6 for 1 h, adjusted back to original pH, then MIC test
[25] = WW307 incubated at pH 8 for 1 h, adjusted back to original pH, then MIC test
[26] = WW307 incubated at pH 10 for 1 h, adjusted back to original pH, then MIC test
[27] = WW307 incubated at pH 12 for 1 h, adjusted back to original pH, then MIC test
[28] = OD600 of micro-broth dilution plates, four-parameter fit
[29] = micro-broth dilution, CLSI 2018, ~1.5 × 10^6 CFUs per mL, 37 °C, 16–18 h
[30] = WW307 incubated with trypsin (1 mg/mL) at 37 °C for 1 h

CC(C)[C@H](NC(=O)[C@H](Cc1c[nH]c2ccccc12)NC(=O)[C@H](Cc1c[nH]c2ccccc12)NC(=O)[C@H](Cc1c[nH]c2ccccc12)NC(=O)[C@H](Cc1c[nH]c2ccccc12)NC(=O)[C@H](CCCNC(=N)N)NC(=O)[C@H](CCCNC(=N)N)NC(=O)[C@@H](N)CCCNC(=N)N)C(N)=O [WW307] (H-RRRWWWWV-NH2)
1 µg/mL: MIC [15, 29]
2.07 µg/mL: IC50 [11, 28]
1.03 µg/mL: IC50 [14, 28]
2.13 µg/mL: IC50 [5, 28]
4.18 µg/mL: IC50 [4, 28]
> 128 µg/mL: HL50 (peptide concentration that causes 50% hemolysis) [10]
16 µg/mL: MIC with Mg^2+ ([1]; 10 mM Mg^2+ added into MHB) | MIC with Mg^2+ ([9]; 10 mM Mg^2+ added into MHB)
2.18 µg/mL: IC50 [6, 28]
8 μg/mL: MIC after pH 12 [1, 27]
4 μg/mL: MIC after pH 2 [1, 22] | MIC after pH 4 [1, 23] | MIC after pH 6 [1, 24] | MIC after pH 8 [1, 25] | MIC after pH 10 [1, 26] | MIC after pH 2 [9, 22] | MIC after pH 4 [9, 23] | MIC after pH 6 [9, 24] | MIC after pH 8 [9, 25] | MIC after pH 10 [9, 26] | MIC after pH 12 [9, 27]
4 µg/mL: MIC with K^+ ([1]; 10 mM K^+ added into MHB) | MIC with Na^+ ([1]; 10 mM Na^+ added into MHB) | MIC after 40 °C [1, 17] | MIC after 60 °C [1, 18] | MIC after 80 °C [1, 19] | MIC after 100 °C [1, 20] | MIC after 121 °C [1, 21] | MIC after pepsin ([1]; WW307 incubated with pepsin (1 mg/mL) at 37 °C for 1 h, protease precipitated with acetonitrile, then MIC test) | MIC, Control ([1]; untreated WW307) | MIC [2, 29] | MIC after pepsin ([3]; WW307 incubated with pepsin (1 mg/mL) at 37 °C for 1 h) | MIC [4, 29] | MIC [5, 29] | MIC [6, 29] | MIC with K^+ ([9]; 10 mM K^+ added into MHB) | MIC with Na^+ ([9]; 10 mM Na^+ added into MHB) | MIC after 40 °C [9, 17] | MIC after 60 °C [9, 18] | MIC after 80 °C [9, 19] | MIC after 100 °C [9, 20] | MIC after 121 °C [9, 21] | MIC, Control ([9]; untreated WW307) | MIC [11, 29] | MIC [12, 29] | MIC [14, 29]
2 µg/mL: MIC [8, 29]
>128 µg/mL: MIC after trypsin [3, 30] | MIC after papain ([7]; WW307 incubated with papain (1 mg/mL) at 37 °C for 1 h) | MIC after trypsin [7, 30] | MIC after papain ([9]; WW307 incubated with papain (1 mg/mL) at 37 °C for 1 h, protease precipitated with acetonitrile, then MIC test)
0.52 µg/mL: IC50 [15, 28]
2.15 µg/mL: IC50 [2, 28]
2.21 µg/mL: IC50 [8, 28]
2.25 µg/mL: IC50 [13, 28]
1.82 µg/mL: IC50 [12, 28]
8 µg/mL: MIC with DMEM (10%) ([1]; 10% DMEM added into MHB) | MIC with Serum (10%) [1, 16] | MIC with DMEM (10%) ([9]; 10% DMEM added into MHB) | MIC with Serum (10%) [9, 16] | MIC [13, 29]
